Measured values from paper PMC9295256 (Journal of medicinal chemistry, 2021).
Entries after “also recorded” stand apart in the source; their conditions may differ.

System: not given
Experiment: not given
Type: in vitro ADME, mouse
Settings: CD-1, mouse
For `N[C@@H](Cc1c[nH]cn1)C(=O)N[C@@H](Cc1c[nH]c2ccccc12)C(=O)O` [Compound 4, His–Trp], the Papp A→B at 120 min, 10 μg/mL was 5.33 ×10⁻⁶ cm/s.

Target: recombinant rat Nln (Rattus norvegicus, UniProt P42676)
Sequence (P42676 38-704): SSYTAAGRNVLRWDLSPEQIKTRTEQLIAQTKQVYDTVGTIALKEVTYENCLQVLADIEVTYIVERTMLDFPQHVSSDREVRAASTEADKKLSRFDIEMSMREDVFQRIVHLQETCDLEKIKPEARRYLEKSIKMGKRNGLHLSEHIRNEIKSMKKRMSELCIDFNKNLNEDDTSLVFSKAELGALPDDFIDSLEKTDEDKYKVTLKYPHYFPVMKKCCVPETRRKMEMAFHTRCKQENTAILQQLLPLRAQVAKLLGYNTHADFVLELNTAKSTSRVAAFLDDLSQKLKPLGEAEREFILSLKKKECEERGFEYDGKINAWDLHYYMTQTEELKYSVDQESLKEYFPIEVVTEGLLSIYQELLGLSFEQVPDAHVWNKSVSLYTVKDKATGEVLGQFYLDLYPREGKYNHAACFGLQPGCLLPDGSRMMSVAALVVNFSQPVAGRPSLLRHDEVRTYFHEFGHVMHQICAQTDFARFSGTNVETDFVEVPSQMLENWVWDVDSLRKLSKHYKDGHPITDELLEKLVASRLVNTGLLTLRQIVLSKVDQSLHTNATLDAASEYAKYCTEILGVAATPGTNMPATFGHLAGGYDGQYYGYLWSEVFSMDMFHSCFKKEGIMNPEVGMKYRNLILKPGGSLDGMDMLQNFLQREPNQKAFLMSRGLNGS
Experiment: Nln activation, continuous quenched fluorescence substrate
Type: biochemical
Settings: not given
With `N[C@@H](Cc1c[nH]cn1)C(=O)NCc1ccccc1` [Compound 5a, (S)-2-Amino-N-benzyl-3-(1H-imidazol-4-yl)propanamide] the “Amax, maximum % activation achieved (95% CI)” value (“Amax … (95% CI)” for short) was 152.2 (137.3 to 171.5) %. In the case of `COc1ccc(CNC(=O)[C@@H](N)Cc2c[nH]cn2)cc1` [Compound 5b, (S)-2-Amino-3-(1H-3l4-imidazol-4-yl)-N-(4-methoxybenzyl)-propanamide], the “Amax … (95% CI)” value is reported as 428.8 (373 to 523.5) %. For `COc1ccc(CNC(=O)[C@H](N)Cc2cnc[nH]2)cc1` [Compound 5c, (R)-2-Amino-3-(1H-imidazol-4-yl)-N-(4-methoxybenzyl)-propanamide], the “Amax … (95% CI)” value was 703.5 (588.9 to 915.6) %. In the case of `COc1ccccc1CNC(=O)[C@@H](N)Cc1c[nH]cn1` [Compound 5d, (S)-2-Amino-3-(1H-3l4-imidazol-4-yl)-N-(2-methoxybenzyl)-propanamide], the “Amax … (95% CI)” value is reported as 385.8 (363.8 to 410.5) %. For `COc1ccccc1CNC(=O)[C@H](N)Cc1c[nH]cn1` [Compound 5e, (R)-2-Amino-3-(1H-3l4-imidazol-4-yl)-N-(2-methoxybenzyl)-propanamide], the “Amax … (95% CI)” value was 324.9 (304 to 349) %. In the case of `COc1cccc(CNC(=O)[C@@H](N)Cc2c[nH]cn2)c1` [Compound 5f, (S)-2-Amino-3-(1H-3l4-imidazol-4-yl)-N-(3-methoxybenzyl)-propanamide], the “Amax … (95% CI)” value is reported as 327.5 (309.7 to 348.2) %. In the case of `COc1cccc(CNC(=O)[C@H](N)Cc2cnc[nH]2)c1` [Compound 5g, (R)-2-Amino-3-(1H-3l4-imidazol-4-yl)-N-(3-methoxybenzyl)-propanamide], the “Amax … (95% CI)” value is reported as 477.1 (444 to 516) %. With `N[C@H](Cc1c[nH]cn1)C(=O)NCc1ccc(C(F)(F)F)cc1` [Compound 5i, (R)-2-Amino-3-(1H-imidazol-4-yl)-N-(4-(trifluoromethyl)benzyl)-propanamide] the “Amax … (95% CI)” value was 319.1 (296.3 to 344.3) %. In the case of `N[C@H](Cc1c[nH]cn1)C(=O)NCc1ccccc1C(F)(F)F` [Compound 5k, (R)-2-Amino-3-(1H-imidazol-4-yl)-N-(2-(trifluoromethyl)benzyl)-propanamide], the “Amax … (95% CI)” value is reported as 345.8 (317.5 to 378.3) %. In the case of `N[C@H](Cc1c[nH]cn1)C(=O)NCc1cccc(C(F)(F)F)c1` [Compound 5m, (R)-2-Amino-3-(1H-imidazol-4-yl)-N-(3-(trifluoromethyl)benzyl)-propanamide], the “Amax … (95% CI)” value is reported as 282 (258.4 to 309.1) %. For `N[C@@H](Cc1c[nH]cn1)C(=O)NCc1ccc(F)cc1` [Compound 5n, (S)-2-Amino-N-(4-fluorobenzyl)-3-(1H-imidazol-4-yl)-propanamide], the “Amax … (95% CI)” value was 293 (276.5–310.7) %. With `N[C@H](Cc1c[nH]cn1)C(=O)NCc1ccc(F)cc1` [Compound 5o, (R)-2-Amino-N-(4-fluorobenzyl)-3-(1H-imidazol-4-yl)-propanamide] the “Amax … (95% CI)” value was 320.5 (299.7 to 343.9) %. With `N[C@@H](Cc1c[nH]cn1)C(=O)NCc1ccc(OC(F)(F)F)cc1` [Compound 5p, (S)-2-Amino-3-(1H-imidazol-4-yl)-N-(4-(trifluoromethoxy)-benzyl)propanamide] the “Amax … (95% CI)” value was 310 (287.2 to 336.1) %. For `N[C@H](Cc1c[nH]cn1)C(=O)NCc1ccc(OC(F)(F)F)cc1` [Compound 5q, (R)-2-Amino-3-(1H-imidazol-4-yl)-N-(4-(trifluoromethoxy)-benzyl)propanamide], the “Amax … (95% CI)” value was 337.1 (312 to 364.9) %. With `N[C@@H](Cc1c[nH]cn1)C(=O)NCc1ccc(SC(F)(F)F)cc1` [Compound 5r, (S)-2-Amino-3-(1H-imidazol-4-yl)-N-(4-((trifluoromethyl)thio)-benzyl)propanamide] the “Amax … (95% CI)” value was 287.5 (277.4 to 298.4) %. In the case of `N[C@H](Cc1c[nH]cn1)C(=O)NCc1ccc(SC(F)(F)F)cc1` [Compound 5s, (R)-2-Amino-3-(1H-imidazol-4-yl)-N-(4-((trifluoromethyl)thio)-benzyl)propanamide], the “Amax … (95% CI)” value is reported as 251.5 (233.7 to 271.3) %. With `N[C@@H](Cc1c[nH]cn1)C(=O)NCCc1ccc2ccccc2c1` [Compound 9f, (S)-2-Amino-3-(1H-imidazol-4-yl)-N-(2-(naphthalen-2-yl)ethyl)-propanamide] the “Amax … (95% CI)” value was 323.7 (310.3 to 337.9) %. For `N[C@H](Cc1c[nH]cn1)C(=O)NCCc1ccc2ccccc2c1` [Compound 9g, (R)-2-Amino-3-(1H-imidazol-4-yl)-N-(2-(naphthalen-2-yl)ethyl)-propanamide], the “Amax … (95% CI)” value was 339.8 (325.4 to 355.4) %. In the case of “(S)-tert-Butyl(1-((2-(1H-indol-3-yl)ethyl)amino)-3-(1H-imidazol-4-yl)-1-oxopropan-2-yl)carbamate [Compound 9b]”, the “Nln activation, result in words” value is reported as “ameliorates activity”. In the case of “N-(2-(1H-Indol-3-yl)ethyl)-3-(1H-imidazol-4-yl)propanamide [Compound 9c]”, the “A50, half maximal activation concentration (95% CI)” value is reported as “Inactive”, the “Amax … (95% CI)” value is reported as “Inactive” and the “Nln activation, result in words” value is reported as “complete amelioration of activity; also recorded: ameliorates activity”.

Same assay, conditions: 100% = normal enzyme turnover; mean of n = 4, 95% CI in parentheses
For `N[C@@H](Cc1c[nH]cn1)C(=O)Nc1ccccc1` [Compound 6a, (S)-2-Amino-3-(1H-imidazol-4-yl)-N-phenylpropanamide], the “Amax … (95% CI)” value was 466.6 (402.3 to 579.7) %. With `N[C@H](Cc1c[nH]cn1)C(=O)Nc1ccccc1` [Compound 6b, (R)-2-Amino-3-(1H-imidazol-4-yl)-N-phenylpropanamide] the “Amax … (95% CI)” value was 440.3 (414.9 to 470.4) %. In the case of `N[C@@H](Cc1c[nH]cn1)C(=O)NCCCc1ccccc1` [Compound 7a, (S)-2-Amino-3-(1H-imidazol-4-yl)-N-(3-phenylpropyl)-propanamide], the “Amax … (95% CI)” value is reported as 288.1 (273.6 to 303.8) %. With `N[C@H](Cc1c[nH]cn1)C(=O)NCCCc1ccccc1` [Compound 7b, (R)-2-Amino-3-(1H-imidazol-4-yl)-N-(3-phenylpropyl)-propanamide] the “Amax … (95% CI)” value was 281.8 (269.9 to 294.5) %. In the case of `N[C@@H](Cc1c[nH]cn1)C(=O)NCCCCc1ccccc1` [Compound 8a, (S)-2-Amino-3-(1H-imidazol-4-yl)-N-(4-phenylbutyl)-propanamide], the “Amax … (95% CI)” value is reported as 328 (309 to 351) %. In the case of `N[C@H](Cc1c[nH]cn1)C(=O)NCCCCc1ccccc1` [Compound 8b, (R)-2-Amino-3-(1H-imidazol-4-yl)-N-(4-phenylbutyl)-propanamide], the “Amax … (95% CI)” value is reported as 233.8 (215.9 to 254.8) %. In the case of `N[C@H](Cc1c[nH]cn1)C(=O)NCCc1c[nH]c2ccccc12` [Compound 9e, (R)-N-(2-(1H-Indol-3-yl)ethyl)-2-amino-3-(1H-imidazol-4-yl)-propanamide], the “Amax … (95% CI)” value is reported as 132 (122.5 to 143.6) %. In the case of `N[C@@H](Cc1c[nH]cn1)C(=O)NCc1ccc2ccccc2c1` [Compound 10a, (S)-2-Amino-3-(1H-imidazol-4-yl)-N-(naphthalen-2-ylmethyl)-propanamide], the “Amax … (95% CI)” value is reported as 210.9 (191.7 to 231.9) %. For `N[C@H](Cc1c[nH]cn1)C(=O)NCc1ccc2ccccc2c1` [Compound 10b, (R)-2-Amino-3-(1H-imidazol-4-yl)-N-(naphthalen-2-ylmethyl)-propanamide], the “Amax … (95% CI)” value was 197.5 (184.9 to 214.8) %. For `N[C@H](Cc1c[nH]cn1)C(=O)NCc1cccc2ccccc12` [Compound 10d, (R)-2-Amino-3-(1H-imidazol-4-yl)-N-(naphthalen-1-ylmethyl)-propanamide], the “Amax … (95% CI)” value was 343 (325.2 to 363.5) %. For `N[C@H](Cc1c[nH]cn1)C(=O)Nc1cccc2cccnc12` [Compound 11b, (R)-2-Amino-3-(1H-imidazol-4-yl)-N-(quinolin-8-yl)propanamide], the “Amax … (95% CI)” value was 288.3 (274.3 to 303.3) %. With “(S)-tert-Butyl(1-((2-(1H-indol-3-yl)ethyl)amino)-3-(1H-imidazol-4-yl)-1-oxopropan-2-yl)carbamate [Compound 9b]” the “Amax … (95% CI)” value was “Inactive”.

Same assay, conditions: 100% = normal enzyme turnover; mean of n = 4, 95% CI in parentheses; listed as D-9e
In the case of `N[C@H](Cc1c[nH]cn1)C(=O)NCCc1c[nH]c2ccccc12` [Compound 9e, (R)-N-(2-(1H-Indol-3-yl)ethyl)-2-amino-3-(1H-imidazol-4-yl)-propanamide], the “Amax … (95% CI)” value is reported as 132%.

Same assay, conditions: mean over L and D enantiomer
With `N[C@H](Cc1c[nH]cn1)C(=O)Nc1cccc2cccnc12` [Compound 11b, (R)-2-Amino-3-(1H-imidazol-4-yl)-N-(quinolin-8-yl)propanamide] the “mean Amax of the two enantiomers” value was 285%.

Same assay, conditions: recombinant rat Nln, QFS 15 μM, 37 °C; mean of n = 4, 95% CI in parentheses
For “(S)-tert-Butyl(1-((2-(1H-indol-3-yl)ethyl)amino)-3-(1H-imidazol-4-yl)-1-oxopropan-2-yl)carbamate [Compound 9b]”, the “A50, half maximal activation concentration (95% CI)” value was “Inactive”.
